Literature values in article PMC11435065, “Inhibition of P-Glycoprotein Asymmetrically Alters the In Vivo Exposure Profile of SGC003F: A Novel Guanylate Cyclase Stimulator” (Pharmaceuticals, 2024).

Parameters: method as in PMID 24398461
Conditions: rats, one hour after administration, with 1.0 mg/kg tariquidar; cited from earlier work

CN(C)C(=O)C(CCN1CCC(O)(c2ccc(Cl)cc2)CC1)(c1ccccc1)c1ccccc1 [loperamide]
Increase of loperamide levels in the brain: 2.3 fold
